Publication PMC3914206

Key:
Assay type in all cases: binding
panel of 442 kinases [1] = biological target: T1, panel of 442 kinases (Homo sapiens, UniProt P10721, V559D/V654A); settings: Compound Concentration 10 µM
T1 construct: purchased KINOMEscan
Source text: (§1) We assessed the selectivity of members of this scaffold using the KINOMEscan methodology across a near comprehensive panel of 442 kinases [[18,27]].

panel of 442 kinases [2] = biological target: T2, panel of 442 kinases (Homo sapiens, UniProt Q6DT37); settings: Compound Concentration 10 µM
T2 construct: purchased KINOMEscan
T2 sequence (Q6DT37 whole entry): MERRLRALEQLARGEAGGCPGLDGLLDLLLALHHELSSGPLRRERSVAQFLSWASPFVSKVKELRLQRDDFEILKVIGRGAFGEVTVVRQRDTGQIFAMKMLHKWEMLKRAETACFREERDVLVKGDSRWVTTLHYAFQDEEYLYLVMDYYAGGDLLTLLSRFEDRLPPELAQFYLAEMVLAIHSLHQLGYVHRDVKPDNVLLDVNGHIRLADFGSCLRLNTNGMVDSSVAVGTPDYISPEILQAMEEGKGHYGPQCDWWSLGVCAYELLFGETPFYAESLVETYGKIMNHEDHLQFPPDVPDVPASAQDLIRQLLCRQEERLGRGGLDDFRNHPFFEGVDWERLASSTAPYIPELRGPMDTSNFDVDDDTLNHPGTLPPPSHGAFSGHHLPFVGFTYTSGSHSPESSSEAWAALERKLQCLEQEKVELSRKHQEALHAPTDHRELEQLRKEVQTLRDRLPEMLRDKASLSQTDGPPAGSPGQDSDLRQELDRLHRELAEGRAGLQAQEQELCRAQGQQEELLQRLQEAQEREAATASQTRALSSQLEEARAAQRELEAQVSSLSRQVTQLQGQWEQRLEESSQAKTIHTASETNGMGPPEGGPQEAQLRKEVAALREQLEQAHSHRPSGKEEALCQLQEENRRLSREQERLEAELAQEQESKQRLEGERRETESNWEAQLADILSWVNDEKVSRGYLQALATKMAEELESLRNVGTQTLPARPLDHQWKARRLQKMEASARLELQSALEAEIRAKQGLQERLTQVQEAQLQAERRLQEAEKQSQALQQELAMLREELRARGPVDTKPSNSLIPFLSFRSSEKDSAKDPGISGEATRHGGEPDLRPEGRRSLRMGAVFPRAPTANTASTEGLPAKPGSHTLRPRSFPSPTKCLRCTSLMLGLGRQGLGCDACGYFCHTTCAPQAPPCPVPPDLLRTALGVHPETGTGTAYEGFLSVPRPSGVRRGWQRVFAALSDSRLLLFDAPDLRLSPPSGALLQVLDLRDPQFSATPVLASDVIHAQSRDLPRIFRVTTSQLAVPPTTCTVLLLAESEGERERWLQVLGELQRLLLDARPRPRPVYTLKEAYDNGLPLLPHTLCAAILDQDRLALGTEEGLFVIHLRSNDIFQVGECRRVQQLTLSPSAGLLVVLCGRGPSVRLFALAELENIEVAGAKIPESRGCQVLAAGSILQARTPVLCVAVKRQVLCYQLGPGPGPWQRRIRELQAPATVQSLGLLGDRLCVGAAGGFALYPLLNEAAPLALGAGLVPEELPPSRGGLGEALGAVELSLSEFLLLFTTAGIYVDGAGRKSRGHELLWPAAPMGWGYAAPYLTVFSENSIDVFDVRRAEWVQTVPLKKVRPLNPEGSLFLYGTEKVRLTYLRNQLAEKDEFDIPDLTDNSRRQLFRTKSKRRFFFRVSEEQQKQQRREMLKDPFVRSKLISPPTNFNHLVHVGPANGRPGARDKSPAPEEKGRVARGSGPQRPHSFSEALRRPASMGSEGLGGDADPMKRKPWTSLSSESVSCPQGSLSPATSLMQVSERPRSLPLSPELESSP
Source text: as §1

panel of 442 kinases [3] = biological target: T3, panel of 442 kinases (Homo sapiens, UniProt P12931); settings: kinase SRC; compound concentration 10 µM
T3 construct: purchased KINOMEscan
T3 sequence (P12931 whole entry): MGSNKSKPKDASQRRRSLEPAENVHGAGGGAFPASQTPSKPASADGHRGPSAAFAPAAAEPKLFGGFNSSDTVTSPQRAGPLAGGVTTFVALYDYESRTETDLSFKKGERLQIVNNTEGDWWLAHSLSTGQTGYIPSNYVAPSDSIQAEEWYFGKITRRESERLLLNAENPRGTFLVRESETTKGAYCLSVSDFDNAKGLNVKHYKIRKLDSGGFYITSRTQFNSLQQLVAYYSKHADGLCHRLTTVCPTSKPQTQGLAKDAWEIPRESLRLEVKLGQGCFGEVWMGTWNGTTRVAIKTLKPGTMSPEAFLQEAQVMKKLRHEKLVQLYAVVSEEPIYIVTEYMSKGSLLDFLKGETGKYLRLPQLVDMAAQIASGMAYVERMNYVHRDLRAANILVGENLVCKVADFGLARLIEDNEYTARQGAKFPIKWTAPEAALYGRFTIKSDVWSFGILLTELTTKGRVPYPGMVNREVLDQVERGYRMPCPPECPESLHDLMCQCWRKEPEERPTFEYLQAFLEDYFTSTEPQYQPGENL
Source text: as §1

panel of 442 kinases [4] = biological target: T4, panel of 442 kinases (Homo sapiens, UniProt Q02779); settings: Compound Concentration 10 µM
T4 construct: purchased KINOMEscan
T4 sequence (Q02779 whole entry): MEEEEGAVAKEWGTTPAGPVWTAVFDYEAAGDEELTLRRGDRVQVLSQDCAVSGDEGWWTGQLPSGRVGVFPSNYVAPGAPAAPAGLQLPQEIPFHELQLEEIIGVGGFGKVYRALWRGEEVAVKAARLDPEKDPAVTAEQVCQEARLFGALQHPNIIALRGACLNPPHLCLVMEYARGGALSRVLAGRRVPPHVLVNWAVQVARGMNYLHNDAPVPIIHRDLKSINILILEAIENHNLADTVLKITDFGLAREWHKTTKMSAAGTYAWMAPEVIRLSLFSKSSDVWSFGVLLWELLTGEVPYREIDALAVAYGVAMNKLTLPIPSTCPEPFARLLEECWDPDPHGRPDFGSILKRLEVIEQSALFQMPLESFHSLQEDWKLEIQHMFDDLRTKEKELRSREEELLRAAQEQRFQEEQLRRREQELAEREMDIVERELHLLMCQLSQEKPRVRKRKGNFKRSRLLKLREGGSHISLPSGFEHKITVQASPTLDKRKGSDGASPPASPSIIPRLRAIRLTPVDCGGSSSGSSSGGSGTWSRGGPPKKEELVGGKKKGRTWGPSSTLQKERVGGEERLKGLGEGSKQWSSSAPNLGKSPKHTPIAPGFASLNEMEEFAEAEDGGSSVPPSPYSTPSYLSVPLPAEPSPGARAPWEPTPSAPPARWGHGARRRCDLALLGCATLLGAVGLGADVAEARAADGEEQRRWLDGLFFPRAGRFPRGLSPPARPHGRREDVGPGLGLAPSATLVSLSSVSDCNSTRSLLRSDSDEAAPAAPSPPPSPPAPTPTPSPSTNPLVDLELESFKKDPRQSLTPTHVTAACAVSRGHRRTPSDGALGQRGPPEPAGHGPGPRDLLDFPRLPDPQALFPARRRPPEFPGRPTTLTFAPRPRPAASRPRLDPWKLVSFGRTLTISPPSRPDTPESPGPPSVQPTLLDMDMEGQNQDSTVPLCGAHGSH
Source text: as §1

T1 sequence (P10721 26-976 V559D/V654A): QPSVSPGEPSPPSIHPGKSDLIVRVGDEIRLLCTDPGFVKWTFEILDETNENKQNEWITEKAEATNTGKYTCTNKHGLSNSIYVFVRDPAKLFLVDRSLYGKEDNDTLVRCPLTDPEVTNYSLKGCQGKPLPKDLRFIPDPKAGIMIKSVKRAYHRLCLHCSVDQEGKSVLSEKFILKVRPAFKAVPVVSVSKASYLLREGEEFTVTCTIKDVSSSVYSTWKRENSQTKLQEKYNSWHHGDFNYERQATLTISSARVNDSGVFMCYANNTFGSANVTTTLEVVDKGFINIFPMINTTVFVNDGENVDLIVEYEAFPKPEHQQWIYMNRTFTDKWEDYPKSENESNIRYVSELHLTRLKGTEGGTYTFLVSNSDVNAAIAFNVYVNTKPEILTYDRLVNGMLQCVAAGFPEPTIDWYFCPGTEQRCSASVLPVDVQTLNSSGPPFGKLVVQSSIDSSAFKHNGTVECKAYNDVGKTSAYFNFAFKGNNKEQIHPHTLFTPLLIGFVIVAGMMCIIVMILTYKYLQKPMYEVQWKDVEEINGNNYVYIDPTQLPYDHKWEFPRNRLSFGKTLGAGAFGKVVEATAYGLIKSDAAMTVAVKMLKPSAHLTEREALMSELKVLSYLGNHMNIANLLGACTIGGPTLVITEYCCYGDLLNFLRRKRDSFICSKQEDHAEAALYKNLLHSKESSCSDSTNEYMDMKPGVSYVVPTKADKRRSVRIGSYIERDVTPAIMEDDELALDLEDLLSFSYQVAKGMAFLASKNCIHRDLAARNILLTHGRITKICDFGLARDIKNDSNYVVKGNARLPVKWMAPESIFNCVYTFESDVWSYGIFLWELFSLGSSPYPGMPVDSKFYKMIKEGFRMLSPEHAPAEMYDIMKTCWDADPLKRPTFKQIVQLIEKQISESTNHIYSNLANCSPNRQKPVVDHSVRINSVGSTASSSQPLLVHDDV

| Compound | KINOMEscan: KIT(V559D,V654A) (panel of 442 kinases [1]) | KINOMEscan: DMPK2 (panel of 442 kinases [2]) | % Ctrl, SRC (panel of 442 kinases [3]) [% Ctrl] | KINOMEscan: MLK2 (panel of 442 kinases [4]) |
| --- | --- | --- | --- | --- |
| COc1cc(C(=O)N2CCC(N3CCN(C)CC3)CC2)ccc1Nc1ncc2c(n1)N(C)c1ccccc1C(=O)N2C [15 (LRRK2-IN-1)] | 100 | 100 | 100 | 100 |
| CCOc1cc(C(=O)N2CCC(N3CCN(C)CC3)CC2)ccc1Nc1ncc2c(n1)N(C1CCCC1)c1ccccc1C(=O)N2C [Compound 26] | 100 | 100 | 100 | 100 |
| COc1cc(C(=O)N2CCC(N3CCN(C)CC3)CC2)ccc1Nc1ncc2c(n1)N1CCc3cccc(c31)C(=O)N2C [Compound 24] | – | – | 95 | 98 |
| COc1cc(C(=O)N2CCC(N3CCN(C)CC3)CC2)ccc1Nc1ncc2c(n1)N(C1CCCC1)c1ccccc1C(=O)N2C [Compound 25, 11-cyclopentyl-2-((2-methoxy-4-(4-(4-methylpiperazin-1-yl)piperidine-1-carbonyl)phenyl)amino)-5-methyl-5H-benzo[e]pyrimido[5,4-b][1,4]diazepin-6(11H)-one] | 100 | 94 | 90 | 96 |
